For 46 compounds, IC50 results are on record in patent publication US20230051589A1, “COMPOUNDS AND COMPOSITIONS FOR TREATING CONDITIONS ASSOCIATED WITH NLRP ACTIVITY” (Novartis AG, priority 2018, published 2023).

pIC50: −log10 of the molar value.

One experiment relates to IL-1β production in PMA-differentiated THP-1 cells. The experiment is described as follows: IL-1β production in PMA-differentiated THP-1 cells stimulated with gramicidin (hTHP-1 assay, 2% fetal bovine serum; Procedures 1-3). Format: cell-based, human. The note with it: Homo sapiens, THP-1, Table B1; hTHP-1 assay containing 2% fetal bovine serum, gramicidin stimulation, IL-1β readout; read-out: hTHP-1 IC50 (average). The method, boiled down:
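PMA-primed THP-1 cells (20 ng/ml PMA, 16-18 h) in RPMI with 2% FBS were pre-incubated with compounds for 1 h, from 100 μM downward in 3-fold steps (0.37% DMSO final), then stimulated with 5 μM gramicidin for 2 h. IL-1β in the supernatant was quantified by HTRF.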
For the compound `CC(C)(O)c1ncc(S(N)(=O)=NC(=O)Nc2c3c(cc4c2CCC4)CCC3)s1` (stereo not shown) [Example 4, N′-(1,2,3,5,6,7-hexahydro-s-indacen-4-ylcarbamoyl)-2-(2-hydroxypropan-2-yl)thiazole-5-sulfonimidamide], the pIC50 is […].

As for `CC(C)(O)c1ncc(S(N)(=O)=NC(=O)Nc2c3c(c(F)c4c2CCC4)CCC3)s1` (stereo not shown) [Example 44, N′-(8-fluoro-1,2,3,5,6,7-hexahydro-s-indacen-4-ylcarbamoyl)-2-(2-hydroxypropan-2-yl)thiazole-5-sulfonimidamide], the pIC50 was […].

Consider `CC(C)(O)c1csc(S(N)(=O)=NC(=O)Nc2c3c(cc4c2CCC4)CCC3)c1` (stereo not shown) [Example 74, N′-(1,2,3,5,6,7-hexahydro-s-indacen-4-ylcarbamoyl)-4-(2-hydroxypropan-2-yl)thiophene-2-sulfonimidamide], for which the pIC50 was […].

The same experiment, now with this note: Homo sapiens, THP-1, hTHP-1 assay containing 2% fetal bovine serum, Table B2, class symbols; read-out: IC50.
With `CC(C)(O)c1sc(S(N)(=O)=NC(=O)Nc2c3c(cc4c2CCC4)CCC3)cc1-c1ccccc1` (stereo not shown) [Compound 900], the pIC50 was 6.70 to 7.40.

In the case of `CN(C)CC(C)(C)c1ccc(S(N)(=O)=NC(=O)Nc2c3c(cc4c2CCC4)CCC3)cc1` (stereo not shown) [Compound 902], the pIC50 is 5.30 to 6.00.

Consider `CN(C)CC(C)(C)c1ccc([S@@](N)(=O)=NC(=O)Nc2c3c(cc4c2CCC4)CCC3)cc1` [Compound 902b], for which the pIC50 was 6.00 to 6.70.

Turning to `CC(C)c1cnc(S(N)(=O)=NC(=O)Nc2c3c(cc4c2CCC4)CCC3)c(F)c1` (stereo not shown) [Compound 903], the pIC50 is 5.30 to 6.00.

Turning to `CC(C)c1cnc([S@@](N)(=O)=NC(=O)Nc2c3c(cc4c2CCC4)CCC3)c(F)c1` [Compound 903a], the pIC50 was 6.00 to 6.70.

With `CC(C)c1cnc([S@](N)(=O)=NC(=O)Nc2c3c(cc4c2CCC4)CCC3)c(F)c1` [Compound 903b], the pIC50 is 4.52 to 5.30.

On to `CCn1ccc(S(N)(=O)=NC(=O)Nc2c3c(cc4c2CCC4)CCC3)n1` (stereo not shown) [Compound 904], for which the pIC50 is 6.00 to 6.70.

With `CCn1ccc([S@](N)(=O)=NC(=O)Nc2c3c(cc4c2CCC4)CCC3)n1` [Compound 904a], the pIC50 is 6.70 to 7.40.

For the compound `CCn1ccc([S@@](N)(=O)=NC(=O)Nc2c3c(cc4c2CCC4)CCC3)n1` [Compound 904b], the pIC50 is 5.30 to 6.00.

As for `CC(C)n1nc(S(N)(=O)=NC(=O)Nc2c3c(cc4c2C(=O)CC4)CCC3)cc1CO` (stereo not shown) [Compound 907], the pIC50 is 5.30 to 6.00.

Consider `CC(C)n1nc(S(N)(=O)=NC(=O)Nc2c3c(cc4c2C(=O)CC4)CCC3)cc1C(C)(C)O` (stereo not shown) [Compound 908], for which the pIC50 was 6.00 to 6.70.

Turning to `CC(C)n1nc([S@@](N)(=O)=NC(=O)Nc2c3c(cc4c2C(=O)CC4)CCC3)cc1C(C)(C)O` [Compound 908b], the pIC50 is 6.00 to 6.70.

On to `CN1CCCC(c2ccc(S(N)(=O)=NC(=O)Nc3c4c(cc5c3CC5)CCC4)c(F)c2)C1` (stereo not shown) [Compound 911], for which the pIC50 is 5.30 to 6.00.

Take `CN1CCC[C@H](c2ccc([S@](N)(=O)=NC(=O)Nc3c4c(cc5c3CC5)CCC4)c(F)c2)C1` [Compound 911b]: the pIC50 was 5.30 to 6.00.

Consider `CN1CCC[C@@H](c2ccc([S@@](N)(=O)=NC(=O)Nc3c4c(cc5c3CC5)CCC4)c(F)c2)C1` [Compound 911d], for which the pIC50 was 5.30 to 6.00.

For the compound `CC(C)(CO)c1ncc(S(N)(=O)=NC(=O)Nc2c3c(c(C#N)c4c2CCC4)CCC3)s1` (stereo not shown) [Compound 913], the pIC50 was 6.70 to 7.40.

Regarding `CC(C)(CO)c1ncc([S@@](N)(=O)=NC(=O)Nc2c3c(c(C#N)c4c2CCC4)CCC3)s1` [Compound 913a], the negative-log IC50 (pIC50) was 5.30 to 6.00.

As to `CC(C)(CO)c1ncc([S@](N)(=O)=NC(=O)Nc2c3c(c(C#N)c4c2CCC4)CCC3)s1` [Compound 913b], the pIC50 was 6.70 to 7.40.

`CC(C)(O)c1nc(CO)c(S(N)(=O)=NC(=O)Nc2c3c(cc4c2C(=O)CC4)CCC3)s1` (stereo not shown) [Compound 914]: the pIC50 is 5.30 to 6.00.

Turning to `CC(C)(O)c1nc(CO)c([S@@](N)(=O)=NC(=O)Nc2c3c(cc4c2C(=O)CC4)CCC3)s1` [Compound 914a], the pIC50 is 4.52 to 5.30.

Regarding `CC(C)(O)c1nc(CO)c([S@](N)(=O)=NC(=O)Nc2c3c(cc4c2C(=O)CC4)CCC3)s1` [Compound 914b], the pIC50 is 5.30 to 6.00.

As to `CCn1ccc(S(N)(=O)=NC(=O)Nc2c3c(cc4c2CC4)CCC3)n1` (stereo not shown) [Compound 916], the pIC50 is 6.00 to 6.70.

With `CCn1ccc([S@](N)(=O)=NC(=O)Nc2c3c(cc4c2CC4)CCC3)n1` [Compound 916a], the pIC50 was 6.70 to 7.40.

With `CCn1ccc([S@@](N)(=O)=NC(=O)Nc2c3c(cc4c2CC4)CCC3)n1` [Compound 916b], the pIC50 was 5.30 to 6.00.

As for `NS(=O)(=NC(=O)Nc1c2c(cc3c1CCC3)CCC2)c1ccc(-c2ccccc2)s1` (stereo not shown) [Compound 917], the pIC50 is 4.52 to 5.30.

Consider `C[C@@](O)(CO)c1ncc([S@](N)(=O)=NC(=O)Nc2c3c(cc4c2CC4)CCC3)s1` [Compound 919a], for which the pIC50 was 6.00 to 6.70.

In the case of `C[C@@](O)(CO)c1ncc([S@@](N)(=O)=NC(=O)Nc2c3c(cc4c2CC4)CCC3)s1` [Compound 919b], the pIC50 is 7.40 to 8.10.

Turning to `C[C@@](O)(CO)c1ncc(S(N)(=O)=NC(=O)Nc2c3c(cc4c2CC4)CCC3)s1` (stereo partly shown) [Compound 919c], the pIC50 was 7.40 to 8.10.

As for `C[C@](O)(CO)c1ncc([S@](N)(=O)=NC(=O)Nc2c3c(cc4c2CC4)CCC3)s1` [Compound 919d], the pIC50 is 6.00 to 6.70.

As to `C[C@](O)(CO)c1ncc([S@@](N)(=O)=NC(=O)Nc2c3c(cc4c2CC4)CCC3)s1` [Compound 919e], the pIC50 was 7.40 to 8.10.

As to `C[C@@](O)(CO)c1ncc([S@@](N)(=O)=NC(=O)Nc2c3c(cc4c2C(=O)CC4)CCC3)s1` [Compound 920b], the pIC50 is 6.00 to 6.70.

For `C[C@](O)(CO)c1ncc(S(N)(=O)=NC(=O)Nc2c3c(cc4c2C(=O)CC4)CCC3)s1` (stereo partly shown) [Compound 920c], the negative logarithm of the IC50 (pIC50) was 6.70 to 7.40.

Consider `C[C@@](O)(CO)c1ncc(S(N)(=O)=NC(=O)Nc2c3c(cc4c2C(=O)CC4)CCC3)s1` (stereo partly shown) [Compound 920d], for which the pIC50 is 6.00 to 6.70.

As for `N[S@@](=O)(=NC(=O)Nc1c2c(cc3c1CCC3)CCC2)c1ccc([C@H]2CCCN2)s1` [Compound 921a], the pIC50 was 4.52 to 5.30.

Regarding `N[S@](=O)(=NC(=O)Nc1c2c(cc3c1CCC3)CCC2)c1ccc([C@H]2CCCN2)s1` [Compound 921b], the pIC50 is 6.00 to 6.70.

As to `N[S@@](=O)(=NC(=O)Nc1c2c(cc3c1CCC3)CCC2)c1ccc([C@@H]2CCCN2)s1` [Compound 921c], the pIC50 was 5.30 to 6.00.

As to `N[S@](=O)(=NC(=O)Nc1c2c(cc3c1CCC3)CCC2)c1ccc([C@@H]2CCCN2)s1` [Compound 921d], the pIC50 was 6.00 to 6.70.

Regarding `NS(=O)(=NC(=O)Nc1c2c(cc3c1CCC3)CCC2)c1ccc([C@H]2CCCN2)s1` (stereo partly shown) [Compound 921e], the pIC50 is 6.00 to 6.70.

Still in this experiment, the particulars now being: Homo sapiens, THP-1, hTHP-1 assay containing 2% fetal bovine serum, Table B2, given as bound; read-out: IC50.
For the compound `CN(C)CC(C)(C)c1ccc([S@](N)(=O)=NC(=O)Nc2c3c(cc4c2CCC4)CCC3)cc1` [Compound 902a], the pIC50 is under 4.52.

Take `CC(C)n1nc([S@](N)(=O)=NC(=O)Nc2c3c(cc4c2C(=O)CC4)CCC3)cc1C(C)(C)O` [Compound 908a]: the negative logarithm of the IC50 (pIC50) was under 4.52.

Consider `CN1CCC[C@@H](c2ccc([S@](N)(=O)=NC(=O)Nc3c4c(cc5c3CC5)CCC4)c(F)c2)C1` [Compound 911a], for which the pIC50 is under 4.52.

Turning to `CN1CCC[C@H](c2ccc([S@@](N)(=O)=NC(=O)Nc3c4c(cc5c3CC5)CCC4)c(F)c2)C1` [Compound 911c], the pIC50 was under 4.52.

Turning to `C[C@@](O)(CO)c1ncc([S@](N)(=O)=NC(=O)Nc2c3c(cc4c2C(=O)CC4)CCC3)s1` [Compound 920a], the pIC50 is under 4.52.

As a reminder, the pIC50 is the IC50 on a negative log10 scale, so that one unit is a factor of ten.
